Source: publication PMC11219871, “Epigenetic-based differentiation therapy for Acute Myeloid Leukemia” (Nature Communications, 2024)
Several values for one entry are separate records, joined by “and”; a condition that tells them apart may be missing. Equal values may be shown once. Read-outs that look alike come from different tables or passages of the source.

What was measured:
Rag2-/-γc-/- mice = test: Toxicity assay: hematological and liver parameters, liver histology; format: in vivo, mouse; conditions: for ALT (Counts (U/L)) / AST (Counts (U/L)) / Bilirubin (Counts (mg/dl)) / HDL (Counts (mmol/l)) / LCLC3 (Counts (mmol/l)) / UREA (Counts (mg/dl)) / Hematocrit (Counts (%)) / Hemoglobin (Counts (g/dl)) / PLT (Counts (K/O)) / RBC (Counts (K/O)) / WBC (Counts (K/O)): healthy Rag2-/-γc-/- mice, individual mice, 10 mg/kg; for ALT (Counts (U/L)) / AST (Counts (U/L)) / Bilirubin (Counts (mg/dl)) / HDL (Counts (mmol/l)) / LCLC3 (Counts (mmol/l)) / UREA (Counts (mg/dl)): 10 mg/kg i.p. daily for 3 weeks then 7-day washout; for Hematocrit (Counts (%)) / Hemoglobin (Counts (g/dl)) / PLT (Counts (K/O)) / RBC (Counts (K/O)) / WBC (Counts (K/O)): 10 mg/kg i.p. daily for 3 weeks
Method: After treating Rag2^−/−γc^−/− mice with i.p. […] Hematological and liver parameters were measured.
Hematological parameters, including white blood cells, red blood cells, platelet count, hemoglobin and hematocrit, were measured on a Hemavet Hematology Analyzer (Drew Scientific). Liver enzymes (albumin, alkaline phosphatase, aspartate transaminase, alanine transaminase), cholesterol, bilirubin, urea and bile acid levels were analyzed from mice serum using a C311 Cobas Analyzer (Roche Diagnostics).
Mice livers were fixed in paraformaldehyde at 4% for 6–8 h, washed twice with saline solution and stored in 70% ethanol. Samples were included in paraffin, and 3-µm serial sections were cut, deparaffinated, and stained with hematoxylin–eosin.

HL-60 = test: RNA-seq; format: cell-based, human
Method: Transcriptomic analyses were performed following low-input 3′ end RNA sequencing approximation for characterization of transcriptional changes in ML-2 and HL-60 samples treated with CM-444 and CM-1758.
Low-input 3′ end RNA-seq was performed as previously described[53],[54] with minor modifications. Briefly, RNA from 0.1 ×10^6 cells from each experimental condition was purified using a Dynabeads mRNA DIRECT Purification Kit (Thermo Fisher Scientific). For barcoded cDNA generation, polyadenylated RNA was retrotranscribed using an Affinity Script cDNA Synthesis Kit (Agilent Technologies), and barcoded primers also harboring T7 promoter and a partial Read2 sequence for illumine sequencing (CGATTGAGGCCGGTAATACGACTCACTATAGGGGGCGACGTGTGCTCTTCCGATCTXXXXXXNNNNTTTTTTTTTTTTTTTTTTTT, where XXXXXX is the cell barcode and NNN is a unique molecular identifier or UMI, which represents the same initial RNA molecule for future quantification). At this point, the samples were pooled (≤6 samples per pool) at equimolar ratios assessed by q-PCR.
The samples were then treated with Exonuclease I (Thermo Fisher Scientific following a 1.2x positive SPRI-selection. Second-strand cDNA synthesis was then performed using a NEBNext Ultra II Directional RNA Second-Strand Synthesis Module (New England Biolabs) for 2 h at 16 °C, followed by a 1.4x positive solid-phase reverse immobilization (SPRI) cleanup. The samples were linearly amplified by T7 in vitro transcription using a T7 RNA Polymerase (New England Biolabs) for 16 h at 37 °C. After DNAse treatment (TURBO DNAse I, Thermo Fisher Scientific) for 15 min at 37 °C to remove dsDNA, samples were cleaned with a positive 1.2x SPRI-selection. RNA size, quality, and concentration were determined by analysis with a Qubit Fluorometer (Termo Fisher Scientific) and TapeStation (Agilent 4200 TapeSation System, Agilent Technologies). If necessary, RNA was fragmented in 200- to 300-bp fragments using Zn2+divalent cations followed by a 2x positive SPRI cleanup. Fragmented RNA was dephosphorylated using FastAP Thermosensitive Alkaline Phosphatase (Thermo Fisher Scientific) for 10 min at 37 °C to enhance RNA ligation yield. In this step, a partial Read1 ([…]) sequence for illumine sequencing was ligated to the 3′ end of the fragmented RNA using T4 RNA Ligase I (New England Biolabs). After a 1.5x positive SPRI cleanup, the RNA product was retrotranscribed using an Affinity Script cDNA Synthesis Kit (Agilent Technologies) and a specific retrotranscription primer ([…]). The library was then purified by 1.5x positive SPRI cleanup, and the yield of the previous steps was determined by q-PCR. Finally, PCR using KAPA HiFi HotStar Ready Mix (Kapa Biosystems) was performed for second-strand cDNA synthesis, illumine primers addition (Read1-P5: […] and Read2-P7: […]) and library amplification using the recommended cycle numbers to minimize over-amplification. The product was purified by a 0.7x positive SPRI cleanup. The quality of the final library was determined by q-PCR (based on the threshold cycle, or Ct, obtained for GAPDH (Fw: […], Rv: […]) or GUSB (Fw: […], Rv: […]) housekeeping genes calibrated per individual set of samples, Qubit Fluorometer (Thermo Fisher Scientific) and TapeStation (Agilent 4200 TapeStation System, Agilent Technologies). All libraries were pooled at equimolar ratios and sequenced on a NextSeq500 (Illumina) using 60 bp single-end reads at a minimum sequence depth of 10 million reads per sample.
Raw reads were demultiplexed using bcl2fastq2 Conversion Software v2.19 (Illumina) to convert base call (BCL) files into FastQ files. The quality control of FastQ files was performed using FastQC (Bioinformatics Babraham Institute). Sequencing reads were aligned to hg19 human reference using Bowtie 2 (Johns Hopkins University) and quantified using quant3p script (github.com/ctlab/quant3p). […]

[1] = HL-60, 25% GI50, 12 h, log2FC +/-1

`COc1cc2nc(-c3ccc(C)o3)cc(NCC3CCN(c4ncc(C(=O)NO)cn4)CC3)c2cc1OC` [CM-444, 2-[4-[[[6,7-dimethoxy-2-(5-methyl-2-furyl)-4-quinolyl]amino]methyl]-1-piperidyl]pyrimidine-5-carbohydroxamic acid] was tested, and the tolerability (Rag2-/-γc-/- mice; 10 mg/kg i.p. daily over 3 weeks, 1-week washout, Rag2-/-γc-/- mice) was “well tolerated”, the “ALT (Counts (U/L))” value (Rag2-/-γc-/- mice; Week 3) was 11.5 U/L and 2 U/L and 10.5 U/L and the “AST (Counts (U/L))” value (Rag2-/-γc-/- mice; Week 3) was 32 U/L and 193 U/L and 55.5 U/L and 92 U/L. For the same molecule, the “Bilirubin (Counts (mg/dl))” value (Rag2-/-γc-/- mice; Week 3) was 0 mg/dl (2×) and 0.15 mg/dl and 0.05 mg/dl, the “HDL (Counts (mmol/l))” value (Rag2-/-γc-/- mice; Week 3) was 1.85 mmol/l (2×) and 0.7 mmol/l and 2.75 mmol/l and the “LCLC3 (Counts (mmol/l))” value (Rag2-/-γc-/- mice; Week 3) was 0.15 mmol/l and 0.25 mmol/l (2×) and 0.1 mmol/l. For the same molecule, the “UREA (Counts (mg/dl))” value (Rag2-/-γc-/- mice; Week 3) was 11.5 mg/dL and 19.7 mg/dL and 22.3 mg/dL and 21.65 mg/dL, the “ALT (Counts (U/L))” value (Rag2-/-γc-/- mice; Week 4) was 19.5 U/L and 11.7 U/L and 32.4 U/L and 21 U/L and the “AST (Counts (U/L))” value (Rag2-/-γc-/- mice; Week 4) was 128.4 U/L and 47.1 U/L and 73.2 U/L and 160.2 U/L. For the same molecule, the “Bilirubin (Counts (mg/dl))” value (Rag2-/-γc-/- mice; Week 4) was 0.09 mg/dl (2×) and 0.06 mg/dl and 0.12 mg/dl, the “HDL (Counts (mmol/l))” value (Rag2-/-γc-/- mice; Week 4) was 2.61 mmol/l (2×) and 2.16 mmol/l and 2.58 mmol/l and the “LCLC3 (Counts (mmol/l))” value (Rag2-/-γc-/- mice; Week 4) was 0.3 mmol/l and 0.21 mmol/l (2×) and 0.24 mmol/l. The “UREA (Counts (mg/dl))” value (Rag2-/-γc-/- mice; Week 4) was 27.78 mg/dL and 27.48 mg/dL and 30.3 mg/dL and 24.12 mg/dL, the “Hematocrit (Counts (%))” value (Rag2-/-γc-/- mice; 7d Washout) was 52.1% and 56.9% and 53.3% and 53.1% and the “Hemoglobin (Counts (g/dl))” value (Rag2-/-γc-/- mice; 7d Washout) was 17.9 g/dL and 18 g/dL and 17.7 g/dL and 17.4 g/dL. For the same molecule, the “PLT (Counts (K/O))” value (Rag2-/-γc-/- mice; 7d Washout) was 1470 K/O and 1489 K/O and 1608 K/O and 1482 K/O, the “RBC (Counts (K/O))” value (Rag2-/-γc-/- mice; 7d Washout) was 10.26 K/O and 10.79 K/O and 10.39 K/O and 10.19 K/O and the “WBC (Counts (K/O))” value (Rag2-/-γc-/- mice; 7d Washout) was 5.36 K/O and 7.2 K/O and 1.48 K/O and 3.02 K/O. The “Hematocrit (Counts (%))” value (Rag2-/-γc-/- mice; Week 1) was 47.7% and 44.8% and 42.1% and 46%, the “Hemoglobin (Counts (g/dl))” value (Rag2-/-γc-/- mice; Week 1) was 18 g/dL and 18.2 g/dL and 17.7 g/dL and 17.8 g/dL and the “PLT (Counts (K/O))” value (Rag2-/-γc-/- mice; Week 1) was 906 K/O and 830 K/O and 622 K/O and 877 K/O. For the same molecule, the “RBC (Counts (K/O))” value (Rag2-/-γc-/- mice; Week 1) was 10.04 K/O and 9.45 K/O and 9.05 K/O and 9.73 K/O, the “WBC (Counts (K/O))” value (Rag2-/-γc-/- mice; Week 1) was 3.7 K/O and 3.24 K/O and 5.4 K/O and 2.32 K/O and the “Hematocrit (Counts (%))” value (Rag2-/-γc-/- mice; Week 2) was 50.2% and 53.9% and 53.4% and 41.4%. For the same molecule, the “Hemoglobin (Counts (g/dl))” value (Rag2-/-γc-/- mice; Week 2) was 17.9 g/dL and 18.4 g/dL and 17.5 g/dL and 15.1 g/dL, the “PLT (Counts (K/O))” value (Rag2-/-γc-/- mice; Week 2) was 1887 K/O and 1805 K/O and 1778 K/O and 1467 K/O and the “RBC (Counts (K/O))” value (Rag2-/-γc-/- mice; Week 2) was 10.43 K/O and 10.72 K/O and 10.28 K/O and 8.62 K/O. For the same molecule, the “WBC (Counts (K/O))” value (Rag2-/-γc-/- mice; Week 2) was 5.84 K/O and 4.8 K/O and 3.6 K/O and 7.26 K/O, the “Hematocrit (Counts (%))” value (Rag2-/-γc-/- mice; Week 3) was 43.7% and 49.1% and 49.8% and 51% and the “Hemoglobin (Counts (g/dl))” value (Rag2-/-γc-/- mice; Week 3) was 11.4 g/dL and 17.4 g/dL and 17.9 g/dL and 18.3 g/dL. For the same molecule, the “PLT (Counts (K/O))” value (Rag2-/-γc-/- mice; Week 3) was 730 K/O and 1171 K/O and 1358 K/O and 1362 K/O, the “RBC (Counts (K/O))” value (Rag2-/-γc-/- mice; Week 3) was 8.57 K/O and 10.02 K/O and 10.36 K/O and 10.9 K/O and the “WBC (Counts (K/O))” value (Rag2-/-γc-/- mice; Week 3) was 1.16 K/O and 8.64 K/O and 6.22 K/O and 6.1 K/O. For the same molecule, the “deregulated genes (RNA-seq)” value (HL-60) was 227, the “down-regulated genes (RNA-seq)” value (HL-60) was 39 and the “up-regulated genes (RNA-seq)” value (HL-60) was 188. The “deregulated genes (RNA-seq)” value (HL-60; [1]) was 136, the “down-regulated genes (RNA-seq)” value (HL-60; [1]) was 3 and the “up-regulated genes (RNA-seq)” value (HL-60; [1]) was 133. For the same molecule, the “ABI1 Log2FC” value (HL-60; HL-60, RNA-Seq) was -0.1754, the “CBFB Log2FC” value (HL-60; HL-60, RNA-Seq) was -0.0298 and the “CCR2 Log2FC” value (HL-60; HL-60, RNA-Seq) was 0.967. For the same molecule, the “CD44 Log2FC” value (HL-60; HL-60, RNA-Seq) was -0.2341, the “CDK6 Log2FC” value (HL-60; HL-60, RNA-Seq) was 0.2817 and the “CEBPB Log2FC” value (HL-60; HL-60, RNA-Seq) was -0.1067. For the same molecule, the “CSF3R Log2FC” value (HL-60; HL-60, RNA-Seq) was 0.0126, the “CTNNBIP1 Log2FC” value (HL-60; HL-60, RNA-Seq) was 0.7431 and the “ELANE Log2FC” value (HL-60; HL-60, RNA-Seq) was -2.007. The “EP300 Log2FC” value (HL-60; HL-60, RNA-Seq) was -0.2558, the “FLI1 Log2FC” value (HL-60; HL-60, RNA-Seq) was -0.04836 and the “FUT4 Log2FC” value (HL-60; HL-60, RNA-Seq) was -0.2495. The “GATA2 Log2FC” value (HL-60; HL-60, RNA-Seq) was -0.2076, the “HCLS1 Log2FC” value (HL-60; HL-60, RNA-Seq) was -0.2476 and the “ITGA4 Log2FC” value (HL-60; HL-60, RNA-Seq) was -0.309. The “ITGAM Log2FC” value (HL-60; HL-60, RNA-Seq) was 0.9545, the “ITGB1 Log2FC” value (HL-60; HL-60, RNA-Seq) was 0.4474 and the “ITGB2 Log2FC” value (HL-60; HL-60, RNA-Seq) was -0.1397. For the same molecule, the “JUN Log2FC” value (HL-60; HL-60, RNA-Seq) was 0.8212, the “MPO Log2FC” value (HL-60; HL-60, RNA-Seq) was -0.2249 and the “MYC Log2FC” value (HL-60; HL-60, RNA-Seq) was -0.2011. The “NFE2 Log2FC” value (HL-60; HL-60, RNA-Seq) was -0.621, the “PIR Log2FC” value (HL-60; HL-60, RNA-Seq) was 0.9082 and the “RUNX1 Log2FC” value (HL-60; HL-60, RNA-Seq) was -0.1954. For the same molecule, the “SOX4 Log2FC” value (HL-60; HL-60, RNA-Seq) was 0.2596, the “SPI1 Log2FC” value (HL-60; HL-60, RNA-Seq) was -0.5566 and the “TESC Log2FC” value (HL-60; HL-60, RNA-Seq) was 0.05581. For the same molecule, the “TRIB1 Log2FC” value (HL-60; HL-60, RNA-Seq) was 0.02008, the “ZBTB46 Log2FC” value (HL-60; HL-60, RNA-Seq) was 0.2361 and the “ZFP36L1 Log2FC” value (HL-60; HL-60, RNA-Seq) was 0.9631.
